Assay [1] relates to breast cancer cells that contain constitutively active Stat3. The assay is described as follows: Cell viability assays using MTT. Format: cell-based. An excerpt:
(§1) Since STA-21 inhibited Stat3-dependent luciferase and DNA binding activities, it was next examined whether STA-21 inhibited the growth and survival of breast cancer cells with constitutive Stat3 signaling. […] The Stat3 status of the cell lines was confirmed by measurement of phosphorylated Stat3 (FIG. 4A).

In assay [2] the test system is Bcl-XL. The assay is described as follows: Western blot of MDA-MB-468 cell lysates. In kind it is cell-based. The settings on record: MDA-MB-468 cells, 20 or 30 μM, 48 h. The protocol: (§2) FIGS. 3A-3B show the inhibition of Stat3 DNA binding activity and Stat3-regulated anti-apoptotic factors by STA-21. (A) MDA-MB-435s cell nuclear extract was incubated with 30 μM STA-21 for 30 min at room temperature, and then incubated with r-^32P-ATP labeled consensus binding sequence for 20 min at room temperature. The reaction mixtures were resolved on 8% polyacrylamide gel. (B) The lysates from MDA-MB-468 cells treated with the indicated concentrations of STA-21 for 48 h were resolved on 10% SDS-PAGE, then immunoblotted with antibodies as indicated.
(§3) It was next examined whether or not STA-21 could reduce Stat3 DNA binding activity using electrophoretic mobility shift assays as reported (Turkson et al., J. Biol. Chem. 276:45443 (2001)). In MDA-MB-435s breast carcinoma cells with constitutive Stat3 signaling, high Stat3 DNA binding activity was observed (FIG. 3A).
A general note: In western blotting, separated proteins are transferred to a membrane and probed.

Assay [3] concerns ERK (P-ERK). The assay can be described thus: Western blot of MDA-MB-468 cell lysates. The settings on record: MDA-MB-468 cells, 48 h. Format: cell-based. As to the method: as §2, §3
Assay [4] relates to AKT (P-AKT). The assay can be described thus: Western blot of MDA-MB-468 cell lysates. Format: cell-based. The settings on record: MDA-MB-468 cells, 48 h. As to the method:
as §2, §3

Assay [5] concerns SV40 luciferase reporter. The assay is described as follows: SV40 luciferase reporter (control lacking Stat3 binding sites) in MDA-MB-435s clones. In kind it is cell-based. The following applies: reporter without Stat3 DNA binding site, 20 μM, 48 h. The protocol: (§4) FIGS. 2A-2B show the inhibition of Stat3 dependent luciferase activity in cancer cells by STA-21. (A) The clone from Caov-3 carcinoma cells stably transfected with pLucTKS3 Stat3-dependent luciferase reporter was used for initial Sat3 small molecule inhibitor screening. The cloned cells were treated with 20 μM of STA-21 as well as other small molecule compounds for 48 h, then the cells were harvested for luciferase activity analysis. (B) The clones from MDA-MB-435s cells stably transfected with pLucTKS3 Stat3-dependent luciferase reporter or SV40 luciferase reporter were treated with 20 μM of STA-21 for 48 h. Luciferase activity was measured using a Promega luciferase kit according to the manufacturer's instructions. The results were based on the averages and standard deviations from three separate experiments.
(§5) The 100 selected inhibitors were evaluated using a Stat3 luciferase reporter system. Both MDA-MB-435s breast carcinoma cells and Caov-3 ovarian carcinoma cells express constitutively activated Stat3 (Song et al., Int. J. Oncol. 24:1017 (2004); Song et al., Biochem. Biophys. Res. Commun. 314:143 (2004)). […] The selected clones were exposed to Stat3 inhibitors at a final concentration of 20 μM for 48 h and luciferase activity was measured using a Promega Luciferase kit (Madison, Wis.).

The subject of assay [6] is Stat5. The assay can be described thus: Electrophoretic mobility shift assay, MDA-MB-435s cells. Format: biochemical. (A gel shift assay detects complexes by their altered migration in electrophoresis.)
Assay [7] concerns Stat3. The assay is described as follows: Stat3-dependent luciferase reporter (pLucTKS3) in MDA-MB-435s cloned cells. In kind it is cell-based. The settings on record: pLucTKS3, 20 μM, 48 h. As to the method:
as §4, §5
(Reporter assays use an easily measured gene product as a stand-in for the process of interest.)

Assay [8] has as its system Stat3. The assay is described as follows: Stat3-dependent luciferase reporter (pLucTKS3) in Caov-3 cloned cells. In kind it is cell-based. The following applies: pLucTKS3, 20 μM, 48 h. As to the method:
as §4, §5

Assay [9] concerns MDA-MB-231. The assay is described as follows: Sub-G1 flow cytometry (apoptotic cells), survival. The following applies: MDA-MB-231, constitutively activated Stat3, 20 μM or 30 μM, 48 h. Format: cell-based. As to the method: (§6) (A) The phosphorylation of Stat3 at Y-705 in different cell lines. (B) The cell lines were treated with STA-21 at concentrations as indicated for 48 h, and then cells were harvested and analyzed for the Sub-G1 profile that indicated apoptotic cells on a FACScan Flow Cytometer (Becton Dickinson, San Jose, Calif.). The results were based on the averages and standard deviations from three separate experiments.
as §1

In assay [10] the test system is MDA-MB-435s. The assay is described as follows: Sub-G1 flow cytometry (apoptotic cells), survival. Format: cell-based. The settings on record: constitutively activated Stat3, 20 μM or 30 μM, 48 h. As to the method: as §6, §1
Assay [11] relates to MDA-MB-453. The assay is described as follows: Sub-G1 flow cytometry (apoptotic cells), survival. The following applies: MDA-MB-453, no constitutive Stat3 signaling, 20 μM or 30 μM, 48 h. Format: cell-based. As to the method: as §6, §1
For assay [12], the system named is MCF7. The assay can be described thus: Sub-G1 flow cytometry (apoptotic cells), survival. Format: cell-based. The following applies: MCF7, no constitutive Stat3 signaling, 20 μM or 30 μM, 48 h. The protocol: as §6, §1
Assay [13] has as its system MDA-MB-468. The assay is described as follows: Sub-G1 flow cytometry (apoptotic cells), survival. The settings on record: MDA-MB-468, constitutively activated Stat3, 20 μM or 30 μM, 48 h. In kind it is cell-based. The protocol: as §6, §1
The subject of assay [14] is human skin fibroblasts (HSF). The assay is described as follows: Sub-G1 flow cytometry (apoptotic cells), survival. Format: cell-based. The following applies: no constitutive Stat3 signaling, 20 μM or 30 μM, 48 h. The protocol:
as §6, §1

Assay [15] concerns Stat3. The assay is described as follows: Electrophoretic mobility shift assay, MDA-MB-435s nuclear extract. Format: biochemical. The following applies: 30 μM, 30 min. The protocol:
as §2, §3

Assay [16] deals with Stat3. The assay is described as follows: Co-immunoprecipitation of Stat3-Flag and Stat3-HA (dimerization) in MDA-MB-435s cells. Format: cell-based. The following applies: 20 μM, 24 h. The source says:
(A) Untransfected and untreated MDA-MB-435s cells. (B and E) Cells cotransfected with pCMV-Stat3-Flag and pCMV-Stat3-HA plasmids were immunostained with anti-flag IgG-Rhodamine. (B) Untreated cells and (E) STA-21 treated cells. (C and F) Transfected cells were immunostained with anti-HA IgG-FITC. (C) Untreated cells and (F) STA-21 treated cells. (D and G) Transfected cells were co-immunostained with both anti-HA IgG-FITC and anti-flag IgG-Rhodamine. […] (H) MDA-MB-435s cells were cotransfected with pCMV-Stat3-Flag and pCMV-Stat3-HA plasmids and were exposed to 20 μM STA-21 for 24 h, then cell lysates were immunoprecipitated with anti-HA or anti-Flag antibodies. Immunoprecipitates were resolved on 10% SDS-PAGE and then immunoblotted with anti-HA, anti-Flag or anti-Stat3 antibodies.
The effect of STA-21 on Stat3 in vivo dimerization in breast cancer MDA-MB-435s cells was also investigated. After the exposure to 20 μM STA-21 for 24 h, the cells were harvested and the lysates from the cells expressing Stat3-Flag and Stat3-HA tagged proteins were immunoprecipitated with an anti-Flag or anti-HA antibody, respectively. The immunoprecipitated reaction mixtures were resolved on a 10% SDS-PAGE and immunoblotted with an anti-HA, anti-Flag, or anti-Stat3 antibody, respectively.

Assay [17] concerns the target T1, Stat1 (Homo sapiens, UniProt P42224).
T1 construct: MDA-MB-435s cell nuclear extract was incubated with 30 μM STA-21 for 30 min at room temperature; endogenous in cells; host or cells: MDA-MB-435s nuclear extract
T1 sequence (P42224 1-750): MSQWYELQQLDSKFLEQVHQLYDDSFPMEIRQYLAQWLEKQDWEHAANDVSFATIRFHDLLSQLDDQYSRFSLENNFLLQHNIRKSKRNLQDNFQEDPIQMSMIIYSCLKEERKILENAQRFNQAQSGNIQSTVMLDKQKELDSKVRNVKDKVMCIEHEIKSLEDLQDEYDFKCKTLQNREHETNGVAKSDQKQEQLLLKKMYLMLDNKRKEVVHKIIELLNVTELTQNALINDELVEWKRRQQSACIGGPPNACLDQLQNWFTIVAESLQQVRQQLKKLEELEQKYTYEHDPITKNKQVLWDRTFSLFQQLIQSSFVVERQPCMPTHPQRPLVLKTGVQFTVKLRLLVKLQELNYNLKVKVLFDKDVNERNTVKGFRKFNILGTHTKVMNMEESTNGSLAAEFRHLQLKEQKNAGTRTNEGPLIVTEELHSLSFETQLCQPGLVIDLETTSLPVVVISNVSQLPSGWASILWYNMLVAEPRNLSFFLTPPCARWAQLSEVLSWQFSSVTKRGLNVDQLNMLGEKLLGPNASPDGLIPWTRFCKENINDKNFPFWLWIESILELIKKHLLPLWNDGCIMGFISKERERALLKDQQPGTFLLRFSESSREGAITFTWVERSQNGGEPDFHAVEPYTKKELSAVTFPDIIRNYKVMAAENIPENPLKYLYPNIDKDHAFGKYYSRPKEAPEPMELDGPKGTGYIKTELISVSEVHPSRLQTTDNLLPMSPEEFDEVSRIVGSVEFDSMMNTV
The assay is described as follows: Electrophoretic mobility shift assay, MDA-MB-435s cells. In kind it is biochemical.

As to `C[C@@H]1CC(=O)c2c(ccc3c2C(=O)c2cccc(O)c2C3=O)C1` [STA-21], the “growth and survival, cell viability (MTT) combined with sub-G1 data” value in [1] is “strong potential to inhibit the growth and survival”. Further, in [2], the “downstream anti-apoptotic effector Bcl-XL, Western blot” value was “inhibited the downstream anti-apoptotic effector Bcl-XL”. The “phosphorylation of ERK (P-ERK)” value in assay [3] is on record as “did not affect the phosphorylation”. In addition, the “phosphorylation of AKT (P-AKT)” value in assay [4] is on record as “did not affect the phosphorylation”. In addition, in [5], the “luciferase activity, SV40 luciferase reporter” value was “did not affect luciferase activity”. Moreover, in [6], the “Stat5 DNA binding activity” value is “not Stat1 and Stat5 DNA binding activity”. Moreover, the luciferase activity result in assay [7] is “decreased more than five fold”. In addition, in assay [8], the “effect on Stat3 induced luciferase activity” value is given as “remarkable inhibitory effect”. Also, the “inhibition of survival (accumulation of cells in sub-G1 phase)” value in assay [9], in [10] and in assay [13] was “remarkable inhibitory activity” in each case. Also, the “inhibition of survival (sub-G1)” value in assay [11], in assay [12] and in assay [14] was “minimal inhibitory effect” throughout. Also, the “Stat3 DNA binding activity” value in assay [15] is listed as “inhibited Stat3 DNA binding activity”. In addition, the “Stat3 dimerization between Stat3-Flag and Stat3-HA proteins” value in assay [16] was “abrogated Stat3 dimerization”. For the same compound, the “Stat1 DNA binding activity” value in assay [17] was “not Stat1 and Stat5 DNA binding activity”.

The values are drawn from US20060247318A1, “Small molecule inhibitors of STAT3 and the uses thereof” (priority 2005, published 2006).
